{
  "source": "patent US9907763B2",
  "about": "“Method of treating or preventing the visual function loss by using 4-(phenylsulfanyl)butane-2-one (4-PSB-2)” (NATIONAL SUN YAT-SEN UNIVERSITY, priority 2016, dated 2018)",
  "key": {"RGC layer": {"test_system": "RGC layer", "assay": "TUNEL assay in retinal sections after optic nerve crush", "assay_type": "in vivo, Wistar rats", "details": "RGC layer of retina; two weeks after ON crush; 5 mg/kg s.c. once; n=6; sham 2.0±1.7, PBS 14.8±6.5", "procedure": "(§1) Forty five adult male Wistar rats weighing 150-180 g (7-8 weeks old) were used and grouped (Table 1). All manipulations were performed with animals under general anesthesia induced by an intramuscular injection of a mixture of ketamine (40 mg/kg body weight (BW)) and xylazine (4 mg/kg BW). In addition, topical 0.5% Alcaine eye drops (Alcon, Puurs, Belgium) were used to perform topical anesthesia.\nAfter general anesthesia and topical Alcaine eye drop application, the ON was exposed and isolated. Care was taken to avoid damaging the small vessels around the ON. A vascular clip (60 g micro-vascular clip) was then applied to the ON 2 mm posterior to the globe for 30 seconds. After the surgery, Tobradex eye ointment (Alcon, Puurs, Belgium) was administered. The rats were kept on electric heating pads at 37° C. for recovery. The control group received a sham operation that entailed ON exposure without the crush. […]\nTo ensure the use of equivalent fields for comparison, all retinal frozen sections were prepared with retinas at 1-2 mm distance from the optic nerve head. […] The TUNEL positive cells in the RGC layer of each sample were counted in ten high powered fields (HPF, ×400 magnification), and three sections per eye were averaged."}, "iNOS": {"test_system": "iNOS", "assay": "Immunoblotting and immunohistochemical analysis of iNOS expression in the retina after ON crush", "assay_type": "in vivo, Wistar rats", "details": "two weeks after ON crush, 5 mg/kg s.c. once, ratio to GAPDH, n=3, result in words", "procedure": "as §1\n(§2) After general anesthesia and topical Alcaine eye drop application, the ON was exposed and isolated. Care was taken to avoid damaging the small vessels around the ON. A vascular clip (60 g micro-vascular clip) was then applied to the ON 2 mm posterior to the globe for 30 seconds. After the surgery, Tobradex eye ointment (Alcon, Puurs, Belgium) was administered. The rats were kept on electric heating pads at 37° C. for recovery. […]\n(§3) IHC of ED1 (CD68, a marker of macrophage/microglia) in the ONs and IHC of CD11b, iNOS and COX-2 in the retina using monoclonal antibodies (ED1, 1:50; CD11b, 1:20; AbD Serotec, Oxford, UK) or polyclonal antibodies (iNOS, 1:50; Cell signaling Inc. Beverly, Mass., USA; COX-2, 1:50; Santa Cruz, Calif., USA) were performed. […] For comparison, ED1 positive cells were counted in six HPF at the lesion site of ON (six rats in each group). Cd11b positive cells were counted in six HPF and three sections per eye were averaged. […]"}, "RGCs": {"test_system": "RGCs", "assay": "Retrograde Fluoro-Gold labeling of RGCs and RGC densities after optic nerve crush", "assay_type": "in vivo, Wistar rats", "details": "two weeks after ON crush", "procedure": "as §1\n(§4) After general anesthesia and topical Alcaine eye drop application, the ON was exposed and isolated. Care was taken to avoid damaging the small vessels around the ON. A vascular clip (60 g micro-vascular clip) was then applied to the ON 2 mm posterior to the globe for 30 seconds. After the surgery, Tobradex eye ointment (Alcon, Puurs, Belgium) was administered. The rats were kept on electric heating pads at 37° C. for recovery. The control group received a sham operation that entailed ON exposure without the crush. 4-PSB-2 (5 mg/kg in 0.2 mL phosphate-buffered saline) or phosphate buffered saline (PBS control) was immediately administered after ON crush once by subcutaneous injection.\nWith this technique, only the RGCs with intact axons projected to the SC were labeled with FG. The procedure was performed based on Chang et al (Exp. Eye Res., 2004, 118, 109-116). Briefly, one week before sacrificing, the rats were anesthetized using a ketamine (100 mg/kg) and Xylazine (10 mg/kg) mixture, and then placed in a stereotactic apparatus. […] One week after labeling, the eyeballs were harvested after euthanasia of the animals. The eyeballs were placed in 10% formalin and iii the whole retina was then carefully dissected, flattened. The retina was examined with a 400× epi-fluorescence microscope equipped with a filter set (excitation filter=350-400 nm; barrier filter=515 nm), as well as a digital camera and software. The retinas were examined for RGCs at a distance of 1 or 3 mm from the optic nerve head in order to provide the central and mid-peripheral RGC densities respectively (FIG. 1A). RGCs were counted in eight areas randomly of […]/each in the central (about 40% of the central area) (FIG. 1B), and eight areas randomly of 38,250 mm^2/each in the mid-peripheral (about 30% of the mid-periphery) regions of each retina. The averages of these areas were taken as the mean density of RGCs per retina. RGC survival percentage was defined as the number of RGCs in each treatment group divided by the number of RGCs in the sham operated retina, multiplied by 100."}, "[1]": {"test_system": "ED1 (CD68, a marker of macrophage/microglia)", "assay": "Immunohistochemistry of ED1 in the ONs after optic nerve crush", "assay_type": "in vivo, Wistar rats", "details": "lesion site of ON; two weeks after ON crush; 5 mg/kg s.c. once; n=6; sham 4.3±2.5, PBS 67.3±21.1", "procedure": "as §1, §2\n(§5) IHC of ED1 (CD68, a marker of macrophage/microglia) in the ONs and IHC of CD11b, iNOS and COX-2 in the retina using monoclonal antibodies (ED1, 1:50; CD11b, 1:20; AbD Serotec, Oxford, UK) or polyclonal antibodies (iNOS, 1:50; Cell signaling Inc. Beverly, Mass., USA; COX-2, 1:50; Santa Cruz, Calif., USA) were performed. […] For comparison, ED1 positive cells were counted in six HPF at the lesion site of ON (six rats in each group). Cd11b positive cells were counted in six HPF and three sections per eye were averaged."}, "Wistar rats": {"test_system": "Wistar rats", "assay": "Flash visual-evoked potentials (FVEPs) after optic nerve crush", "assay_type": "in vivo", "details": "2 weeks after ON crush; 5 mg/kg s.c. once; n=6; sham 83±3 ms, PBS 154±23 ms", "procedure": "as §1, §4\nFor the functional evaluation of the ON, FVEPs were recorded 2 weeks after ON crush in 18 experimental rats. […]"}, "Cd11b": {"test_system": "Cd11b", "assay": "Immunohistochemistry of Cd11b in the retina after optic nerve crush", "assay_type": "in vivo, Wistar rats", "details": "two weeks after ON crush, 5 mg/kg s.c. once, n=6, sham 2.3±1.7, PBS 40.0±9.7", "procedure": "as §1, §2, §5"}, "COX-2": {"test_system": "COX-2", "assay": "Immunoblotting and immunohistochemical analysis of COX-2 expression in the retina after ON crush", "assay_type": "in vivo, Wistar rats", "details": "two weeks after ON crush, 5 mg/kg s.c. once, ratio to GAPDH, n=3, result in words", "procedure": "as §1, §2, §3"}},
  "data": [
    {"molecule": "CC(=O)CCSc1ccccc1", "note": "[4-PSB-2, 4-(phenylsulfanyl)butan-2-one]", "values": [
      {"measurement": "TUNEL positive cells in the RGC layer", "setting": "RGC layer", "value": "6.7±3.4", "unit": "positive cells/HPG"},
      {"measurement": "iNOS expression in the retina", "setting": "iNOS", "value": "prevented the increase"},
      {"measurement": "densities of RGCs in the central retina", "setting": "RGCs; central retina, 5 mg/kg once by subcutaneous injection immediately after crush, n=6", "value": "1342±473 /mm^2"},
      {"measurement": "RGC survival, central retina", "setting": "RGCs; central retina, relative to sham operated retina, 5 mg/kg s.c. once", "value": 56.8, "unit": "% survival"},
      {"measurement": "RGC survival rate increase as compared to the PBS-treated group, central retina", "setting": "RGCs; central retina, vs PBS-treated group, p<0.05", "value": "approximately 35.7%"},
      {"measurement": "densities of RGCs in mid-peripheral retina", "setting": "RGCs; mid-peripheral retina, 5 mg/kg once by subcutaneous injection immediately after crush, n=6", "value": "915±244 /mm^2"},
      {"measurement": "RGC survival, mid-peripheral retina", "setting": "RGCs; mid-peripheral retina, relative to sham operated retina, 5 mg/kg s.c. once", "value": 65.3, "unit": "% survival"},
      {"measurement": "RGC survival rate increase as compared to the PBS-treated group, mid-peripheral retina", "setting": "RGCs; mid-peripheral retina, vs PBS-treated group, p<0.05", "value": "~35.3", "unit": "%"},
      {"measurement": "ED1 positive cells/HPF", "setting": "[1]", "value": "33.5±14.5", "unit": "positive cells/HPF"},
      {"measurement": "latency of the P1 wave (FVEP)", "setting": "Wistar rats", "value": "118 ± 14", "unit": "ms"},
      {"measurement": "Cd11b positive cells/HPF", "setting": "Cd11b", "value": "17.3±5.9", "unit": "positive cells/HPF"},
      {"measurement": "COX-2 expression in the retina", "setting": "COX-2", "value": "prevented the increase"}
    ]}
  ]
}
